Source: the supplement of paper PMC4862054

Legend:
Experiment in all cases: normalised viability (% of control), CellTiter-Blue; higher = more viable cells (about 100 = DMSO control)
Conditions in all cases: incubation time: 72 h
[1] = tested on: CAL-148
Outline: (§1)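 Plates were quality-checked by Z'-factor and normalised to vehicle (100) and a positive kill control (0). The underlying assay incubated breast cancer cell lines for 72 h on 384-well plates with compound, then added 2.5 µl CellTiter-Blue for 2 h at 37 °C and read at 560/590 nm. The value is normalised viability at a single listed concentration of the series.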

[2] = tested on: CAL-85-1
Outline: as §1

[3] = tested on: HCC1599
Outline: as §1

[4] = tested on: MDA-MB-231
Outline: as §1

[5] = tested on: MFM-223
Outline: as §1

[6] = tested on: CAL-51
Outline: as §1

[7] = tested on: Hs578T
Outline: as §1

[8] = tested on: DU-4475
Outline: as §1

[9] = tested on: HCC1937
Outline: as §1

[10] = tested on: MDA-MB-453
Outline: as §1

| Compound | normalised viability ([1]; 3 nM) [%] | normalised viability ([1]; 30 nM) [%] | normalised viability ([1]; 100 nM) [%] | normalised viability ([2]; 3 nM) [%] | normalised viability ([2]; 30 nM) [%] | normalised viability ([2]; 100 nM) [%] | normalised viability ([3]; 10 nM) [%] | normalised viability ([3]; 1000 nM) [%] | normalised viability ([3]; 10000 nM) [%] | normalised viability ([4]; 10 nM) [%] | normalised viability ([4]; 1000 nM) [%] | normalised viability ([4]; 10000 nM) [%] | normalised viability ([5]; 10 nM) [%] | normalised viability ([5]; 1000 nM) [%] | normalised viability ([5]; 10000 nM) [%] | normalised viability ([6]; 3 nM) [%] | normalised viability ([6]; 30 nM) [%] | normalised viability ([6]; 100 nM) [%] | normalised viability ([7]; 10 nM) [%] | normalised viability ([7]; 1000 nM) [%] | normalised viability ([7]; 10000 nM) [%] | normalised viability ([8]; 3 nM) [%] | normalised viability ([8]; 30 nM) [%] | normalised viability ([8]; 100 nM) [%] | normalised viability ([9]; 10 nM) [%] | normalised viability ([9]; 1000 nM) [%] | normalised viability ([9]; 10000 nM) [%] | normalised viability ([10]; 3 nM) [%] | normalised viability ([10]; 30 nM) [%] | normalised viability ([10]; 100 nM) [%] |
| --- | --- | --- | --- | --- | --- | --- | --- | --- | --- | --- | --- | --- | --- | --- | --- | --- | --- | --- | --- | --- | --- | --- | --- | --- | --- | --- | --- | --- | --- | --- |
| Oc1ncnc2[nH]ncc12 [Allopurinol] | 113 | 121 | 120 | 109 | 98 | 106 | 87.1 | 77.3 | 90.1 | 91.8 | 93.9 | 107 | 95.3 | 110 | 105 | 98.2 | 91.9 | 94.8 | 108 | 120 | 106 | 104 | 92.1 | 97 | 87.2 | 79.2 | 96.2 | 115 | 105 | 105 |
| O=C1CN2Cc3c(ccc(Cl)c3Cl)N=C2N1 [Anagrelide] | 96.5 | 102 | 103 | 102 | 84.7 | 97.1 | 112 | 93.1 | 89.3 | 103 | 95.5 | 104 | 100 | 99 | 104 | 110 | 96.5 | 84.3 | 101 | 90.9 | 88.2 | 89.5 | 79.5 | 96.1 | 95.6 | 82.5 | 77.8 | 110 | 102 | 98.5 |
| Nc1ncn([C@@H]2O[C@H](CO)[C@@H](O)[C@H]2O)c(=O)n1 [Azacitidine] | 83.8 | 85.2 | 89.3 | 98.5 | 97.8 | 92.6 | 111 | 72.8 | 88.4 | 81.1 | 85.4 | 69.9 | 100 | 95.5 | 59.4 | 102 | 104 | 104 | 98.4 | 90.2 | 36 | 97.2 | 116 | 117 | 94 | 74.4 | 56.9 | 104 | 109 | 102 |
| O=NN(CCCl)C(=O)NCCCl [Carmustine] | 94.5 | 96.7 | 97.5 | 95.1 | 88.9 | 96.6 | 99 | 83.5 | 84.2 | 103 | 99.1 | 117 | 93.1 | 94.6 | 103 | 108 | 107 | 99.4 | 114 | 95.3 | 115 | 85.3 | 83.5 | 93 | 95 | 93 | 71.5 | 109 | 105 | 110 |
